{
  "source": "patent US20100172925A1",
  "about": "“HLA-A2-RESTRICTED T-CELL EPITOPES OF THE RESPIRATORY SYNCYTIAL VIRUS FUSION PROTEIN AS PEPTIDE-BASED VACCINES” (priority 2009, published 2010)",
  "key": {"[1]": {"tested_on": "lungs of peptide-immunized mice infected with RSV", "assay": "Pathological staining of CD4+ and CD8+ T cells in lungs of peptide-immunized, RSV-infected mice", "type": "in vivo, mouse", "excerpt": "A recent study has generally questioned the role of CTLs in the pathogenesis of human RSV infection. Very few CD8^+ T cells in the lung infiltrates were found in human infants infected with lethal RSV. Additionally, there was little evidence for T cell cytokines in nasal secretion and few CTL can be recovered by BAL from the infants with bronchiolitis."}, "HLA-A*0201 molecules": {"target": "T1, HLA-A*0201 molecules (Homo sapiens, UniProt P04439, D140Y/D185E/D98H/E176V/E277Q/G131W/G231S/I119V/I121R/I166T/I218V/L300P/L318F/N151K/N90K/P208A/P217A/Q86G/Q94H/R138H/R169H/T345S)", "T1 construct": "T2 cell (which expressing HLA-A*0201)-stabilization assay; endogenous in cells; host or cells: T2 cells", "assay": "T2 cell-stabilization assay (T2-based HLA-A*0201 binding)", "conditions": "T2 cells, peptide 50 μg/mL; for binding affinity higher than the baseline: moderate binding affinity; for mean of fluorescence intensity (MFI) ratio, binding to HLA-A*0201: ratio to negative control (MFI=1)"}, "[2]": {"tested_on": "CD4+ lymphocytes of peptide-immunized HLA-Tg B6 mice", "assay": "CD4+ T cell proliferation (CFSE, cell dividing index) in peptide-immunized mice", "type": "in vivo, mouse", "conditions": "mice immunized s.c. twice with 50 μg peptide in IFA; 8 days of restimulation by the same peptide", "method": "(§1) HLA-A2.1 transgenic C57BL/6 mice were anesthetized with isoflurane and primed with 1×10^7 pfu/50 μL of rAd-F0, rAd-LacZ or 1×10^4 live RSV B1 via the intranasal (i.n.) route. Twenty days later, animals were boosted i.n. with the same dose of respective immunogens. For peptide-based vaccination, transgenic mice were immunized subcutaneously (s.c.) with 50 μg of individual synthetic peptides emulsified in 100 μL of incomplete Freund's adjuvant (IFA) and then boosted s.c. with the same dose of respective peptides mixed with IFA one week later. Mice were sacrificed 7 days after the boost. The splenocytes were isolated and stimulated with synthetic CD8 epitope peptides in the presence of 5-(6)-carboxyfluorescein diacetate succinimidyl ester (CFSE) for 4 and 8 days. Proliferated CD4^+ or CD8^+ T cell counts were analyzed by flow cytometry (BD FACSCalibur) using PE-labeled specific antibody against CD4 or CD8, respectively. […]\n(§2) To test the immunogenicity of these peptides, HLA-Tg B6 mice were immunized twice with individual IFA-emulsified peptide No. 3, 14, 23, or peptide 17 at day 0 and day 7. […] Proliferated CD4^+ and CD8^+ lymphocytes in response to CD8 epitope were counted by a flow cytometry analysis using specific anti-CD4 and CD8 antibodies conjugated with FITC, respectively. […]"}, "RSV-B1": {"tested_on": "RSV-B1", "assay": "Viral load in lungs after live RSV-B1 challenge of peptide-immunized mice", "type": "in vivo, mouse", "conditions": "two doses of peptide; challenge 10^6 pfu live RSV-B1; 4 days post challenge", "method": "as §1, with “The splenocytes were isolated and stimulated with synthetic CD8 epitope peptides in the presence of 5-(6)-carboxyfluorescein diacetate succinimidyl ester (CFSE) for 4 and 8 days.” left out\nIn FIG. 5, mice were immunized via the intranasal route twice with the immunogen as indicated before they were intranasally challenged with 10^6 pfu of live RSV B1. Viral plaques in the lungs of the individual mice were determined 4 days post the challenge using plaque-forming assay as described in the methods. Results were expressed as the plaque number for each mouse. […] 14 and subsequently challenged with 1×10^6 pfu of live RSV-B1 viruses, as compared to 282±116 plaques detected in the lung tissues of mice immunized with the adjuvant IFA alone. […]"}, "[3]": {"tested_on": "spleen lymphocytes of peptide-immunized HLA-Tg B6 mice", "assay": "IFN-γ ELISPOT, peptide-restimulated splenocytes of peptide-immunized mice", "type": "in vivo, mouse", "method": "as §1\nFollowing 2 hr of incubation at room temperature, the plate was washed with 200 μL of wash buffer. […] The plates were washed with water, air-dried overnight, and the spots per culture were scored using the immunospot counting reader (C.T.L. IMMUNOSPOT, […] TECHNOLOGY LTD). Results were expressed as the number of cytokine-secreting cells per 5×10^5 splenocytes seeded at culture initiation. […]"}, "[4]": {"tested_on": "CD8+ lymphocytes of peptide-immunized HLA-Tg B6 mice", "assay": "CD8+ T cell proliferation (CFSE, cell dividing index) in peptide-immunized mice", "type": "in vivo, mouse", "conditions": "mice immunized s.c. twice with 50 μg peptide in IFA; 8 days of restimulation by the same peptide", "method": "as §1, §2"}, "peptide-loaded T2 cells": {"tested_on": "peptide-loaded T2 cells", "assay": "Cytotoxicity (CTL) assay, CFSE/7-AAD, splenocytes of peptide-immunized mice against peptide-loaded T2 cells", "type": "in vivo, mouse", "conditions": "E:T ratio of 100:1; IFA vehicle background 6.5%", "method": "A non-radioactive assay of cell-mediated cytotoxicity was performed using green fluorescent probes 5-(6)-carboxyfluorescein diacetate succinimidyl ester (CFSE) to label target cells in combination with 7-amino-actinomycin D (7AAD), a red fluorescent probe to label dead effector and dead target cells. The assay was used to assess the presence of the RSV F protein-specific CTLs in the spleens or lungs of the immunized animals [Russell et al. (2002) “Lymphocyte-mediated cytotoxicity” Annu Rev Immunol 20:323-70]. The assay protocol was in accordance with the manufacturer's instructions (Cayman Chemical, Michigan, USA). […]\nThe CFSE-labeled target cells were resuspended in the culture medium and incubated at 37° C. of CO2 incubator for 30 minutes. […] The CFSE positive cells were measured in the FL1 channel and 7-AAD stained cells were measured in the FL3 channel. The percentage of CFSE/7-AAD double positive target cells (i.e., T2 cell death) was analyzed.\nIt has been reported that in primary RSV infection of BALB/c mice, CTLs generated against the F, matrix 2 (M2) and N viral proteins play a protective role in virus clearance. […] A mean background percentage of the killed target cells co-cultured with the control splenocytes isolated from the mouse previously immunized with the vehicle IFA was scored (6.5% at the E:T ratio of 100:1). […]"}, "[5]": {"tested_on": "eosinophile count in peripheral blood or lung", "type": "in vivo, mouse", "conditions": "peptide-immunized mice challenged with RSV; data not shown"}},
  "note": "Entries after “also recorded” stand apart in the source; their conditions may differ. No end group written: not given here.",
  "data": [
    {"sequence": "AITTILAAV [compound 3]", "values": [
      {"measurement": "infiltrated CD4+ and CD8+ T cells in the lungs", "setting": "[1]", "result": "few infiltrated CD4^+ and CD8^+ T cells"}
    ]},
    {"sequence": "ALLSTNKAV (F193-201) [compound 8, 9-mer synthetic peptide from the F protein of RSV-B1 strain]", "values": [
      {"measurement": "binding affinity higher than the baseline", "setting": "HLA-A*0201 molecules", "result": 10, "unit": "%"}
    ]},
    {"sequence": "FLLGVGSAI (F163-171) [compound 6, 9-mer synthetic peptide from the F protein of RSV-B1 strain]", "values": [
      {"measurement": "binding affinity higher than the baseline", "setting": "HLA-A*0201 molecules", "result": 10, "unit": "%"}
    ]},
    {"sequence": "KIMTSKTDV [compound 17]", "values": [
      {"measurement": "infiltrated CD4+ and CD8+ T cells in the lungs", "setting": "[1]", "result": "few infiltrated CD4^+ and CD8^+ T cells"}
    ]},
    {"sequence": "KLMSNNVQI (F295-303) [compound 15, 9-mer synthetic peptide from the F protein of RSV-B1 strain]", "values": [
      {"measurement": "mean of fluorescence intensity (MFI) ratio, binding to HLA-A*0201", "setting": "HLA-A*0201 molecules", "result": "about 1.5"}
    ]},
    {"sequence": "KVLDLKNYI (F214-222) [compound 13, 9-mer synthetic peptide from the F protein of RSV-B1 strain]", "values": [
      {"measurement": "CD4+ cell proliferation", "setting": "[2]", "result": "did not manifest cell proliferation"},
      {"measurement": "protection against live RSV challenge (lung viral plaques, in words)", "setting": "RSV-B1", "result": "not protected"},
      {"measurement": "IFN-γ level (ELISPOT, in words)", "setting": "[3]", "result": "background level of IFN-γ"},
      {"measurement": "CD8+ lymphocyte proliferation", "setting": "[4]", "result": "did not elicit CD8^+ lymphocyte proliferation"},
      {"measurement": "binding activity to HLA-A*0201 molecules (in words)", "setting": "HLA-A*0201 molecules", "result": "strong binding activity"},
      {"measurement": "binding affinity higher than the baseline", "setting": "HLA-A*0201 molecules", "result": 10, "unit": "%"},
      {"measurement": "percentage of killed target cells (CFSE and 7-AAD double positive T2 cells), CTL response", "setting": "peptide-loaded T2 cells", "result": 15.4, "unit": "%"}
    ]},
    {"sequence": "LLSLIAVGL (F561-569) [compound 24, 9-mer synthetic peptide from the F protein of RSV-B1 strain]", "values": [
      {"measurement": "mean of fluorescence intensity (MFI) ratio, binding to HLA-A*0201", "setting": "HLA-A*0201 molecules", "result": "about 1.5"}
    ]},
    {"sequence": "LLSTNKAVV (F194-202) [compound 9, 9-mer synthetic peptide from the F protein of RSV-B1 strain]", "values": [
      {"measurement": "mean of fluorescence intensity (MFI) ratio, binding to HLA-A*0201", "setting": "HLA-A*0201 molecules", "result": "about 1.5"}
    ]},
    {"sequence": "LMSNNVQIV (F296-304) [compound 16, 9-mer synthetic peptide from the F protein of RSV-B1 strain]", "values": [
      {"measurement": "mean of fluorescence intensity (MFI) ratio, binding to HLA-A*0201", "setting": "HLA-A*0201 molecules", "result": "about 1.5"}
    ]},
    {"sequence": "SLIAVGLLL (F563-571) [compound 25, 9-mer synthetic peptide from the F protein of RSV-B1 strain]", "values": [
      {"measurement": "binding affinity higher than the baseline", "setting": "HLA-A*0201 molecules", "result": 10, "unit": "%"}
    ]},
    {"sequence": "SVGNTLYYV (F474-482) [compound 18, 9-mer synthetic peptide from the F protein of RSV-B1 strain]", "values": [
      {"measurement": "binding affinity higher than the baseline", "setting": "HLA-A*0201 molecules", "result": 10, "unit": "%"}
    ]},
    {"sequence": "TLLLWVLLL (F5-13) [compound 1, 9-mer synthetic peptide from the F protein of RSV-B1 strain]", "values": [
      {"measurement": "binding affinity higher than the baseline", "setting": "HLA-A*0201 molecules", "result": 10, "unit": "%"}
    ]},
    {"sequence": "VILLSLIAV [compound 23]", "values": [
      {"measurement": "eosinophilia (eosinophile count in peripheral blood or lung)", "setting": "[5]", "result": "not eosinophilia"},
      {"measurement": "infiltrated CD4+ and CD8+ T cells in the lungs", "setting": "[1]", "result": "more infiltrated CD4^+ and CD8^+ T cells; also recorded: severe CD8^+ lymphocytic inflammation"}
    ]},
    {"sequence": "YMLTNSELL [compound 14]", "values": [
      {"measurement": "eosinophilia (eosinophile count in peripheral blood or lung)", "setting": "[5]", "result": "absence of pulmonary eosinophilia"},
      {"measurement": "infiltrated CD4+ and CD8+ T cells in the lungs", "setting": "[1]", "result": "few infiltrated CD4^+ and CD8^+ T cells"}
    ]}
  ]
}
